# In patent US3954769A, “Dibenzo[b,f]thiepins” (Hoffman-La Roche Inc., priority 1973, dated 1976):
# “Also recorded” adds a separate entry of the source.
# Assays:
# [1] = Determination of cataleptic effect (undesired side effect); format: in vivo, rats; conditions: rat, in vivo, ip; rats, intraperitoneally; recorded every 30 minutes over a 6-hour period; read-out: ED50 (dose at which 50% of the animals are cataleptic)
# Procedure: (§1) I. Determination of cataleptic effect (undesired side effect)
# (§2) A cataleptic effect ("wax-like rigidity", that is, abnormally long retention of an enforced body position) is considered to be a disturbing side effect with central depressants and neuroleptically active compounds and indicates motor disturbances. […] The following compounds were tested:
# (§3) The test animals are considered to be cataleptic when the homolateral extremities remain in the crossed position for at least 10 seconds. The number of cataleptic animals is recorded every 30 minutes over a 6-hour period. The ED50 is the dose at which 50% of the animals are cataleptic.
# rats = experiment: as above; format: in vivo; conditions: in words
# Procedure: as §1, §2, §3
# [2] = system: homovanillinic acid (turnover of dopamine in the basal ganglions); experiment: Determination of homovanillinic acid (HVA), turnover of dopamine in brain; format: in vivo, rats; conditions: for activity in HVA test (in words): compared with chlorpromazine; for Increase in HVA, %: rats, two hours prior to being killed, titer in untreated rats set at 100%
# Procedure: II. Determination of Homovanillinic Acid
# Two hours prior to being killed, rats are injected with the test substance.
# Thereafter, the homovanillinic acid is extracted from the supernatant portion of a homogenous mixture of the brains into butyl acetate and later into aqueous solution and is oxidized with potassium ferric cyanide to a fluorescent dimer. […] The homovanillinic acid titer in untreated rats is arbitrarily set at 100%.
# [3] = Determination of toxicity in mice (24-hour-values); format: in vivo; conditions: mouse, in vivo, po, read-out: ED50 (toxicity)
# Description: (§4) III. Determination of toxicity
# mice = experiment: Determination of toxicity in mice (24-hour-values); format: in vivo; conditions: in words
# Description: as §4
Compound,TD50 at 6 h [1],cataleptic effect (in words) (rats; maleate),activity in HVA test (in words) [2],"Increase in HVA, % ([2]; 50 mg/kg. p.o.)",LD50 at 24 h [3],toxicity (in words) (mice),cataleptic effect (in words) (rats),"Increase in HVA, % ([2]; 20 mg/kg. p.o.)"
"COc1ccc2c(c1)CC(N1CCN(C)CC1)c1cc(SC)ccc1S2.O=C(O)/C=C\C(=O)O (centres unmarked) [Product A, 1-[10,11-dihydro-2-methoxy-8-(methylthio)-dibenzo[b,f]thiepin-10-yl]-4-methylpiperazine maleate]",> 100 mg/kg,no cataleptic effect; also recorded: complete absence of cataleptic side effect,somewhat less active than chlorpromazine,185%,1880 mg/kg,superior to chlorpromazine,,
"CN(C)CCCN1c2ccccc2Sc2ccc(Cl)cc21 [Chlorpromazine, reference compound]",,,,,,,does demonstrate cataleptic effects,320%
"CSc1ccc2c(c1)C(N1CCN(C)CC1)Cc1cc(C)ccc1S2.O=C(O)/C=C\C(=O)O (centres unmarked) [Product B, 1-[10,11-dihydro-2-methyl-8-(methylthio)-dibenzo[b,f]thiepin-10-yl]-4-methylpiperazine maleate]",25 mg/kg,considerably lower cataleptic effect than chlorpromazine; also recorded: superior to chlorpromazine due to the lower cataleptic side effect,nearly as potent as that of chlorpromazine,320%,450 mg/kg,superior to chlorpromazine,,
